Laboratory results reported in patent US9138398B2, “Cationic alcohols and uses thereof” (Living Proof, Inc., priority 2009, dated 2015).

Experiment: Contact angle measurements of hair fiber (Cahn DCA-312 tensiometer)
Conditions: 1.5% Example 15 in conditioner C2, 20 cycles, versus placebo conditioner C1
Text: As described previously, improving upon benefits such as hydrophobicity, shine and tactile properties leads to the perception of healthier, more conditioned hair. Contact angle measurement has proven to be a viable method to measure the degree of hydrophobicity of hair. In principle, it measures the angle at the point of contact of a liquid with a surface. If the surface is highly hydrophobic (such as virgin, untreated hair), the angle of the water droplet at the interface would be greater than 90°. Likewise, a hydrophilic surface would cause the water droplet to fall flat, and the angle would be close to 0°.
Virgin black hair tresses (1.5 g each, from International Hair Importers) were bleached once with a homogeneous mixture of Clairol Pure White 20V hydrogen peroxide solution (45 ml) and Clairol bleach powder Ultra Concentrate BW2000 (6.75 g) for 10 min at 50° C. The tresses were shampooed with a 7.5% Sodium Lauryl Sulfate solution twice and air-dried for 24 h. […]
Contact angle measurements were performed with a Cahn DCA-312 tensiometer. […] The water surface tension was determined with a platinum DuNuoy ring (Cat 14-812-5) to be 70.6 mN/m. […]
The hair fiber diameter was measured with a precision micrometer (Mitutoyo Cat 293-761-30). […] The advancing and receding contact angles were measured for each sample, with runs performed in triplicate.

C[N+](C)(CC[N+](C)(C)CC(O)COCC(F)(F)C(F)F)CC(O)COCC(F)(F)C(F)F (stereo not shown) [Example 15]
Change of contact angle of bleached hair (hydrophobicity), in words: significantly increased the contact angle
